Data taken from patent publication US11643782B2, “Method for controlling growth of microorganisms and/or biofilms in an industrial process” (Kemira Oyj, priority 2017, dated 2023).

How the values were obtained:
Format in all cases: cell-based
[1] = system: Meiothermus silvanus biofilms; test: Prevention of biofilm formation (96-microwell peg-lid plates, Crystal Violet staining); conditions: for Biofilm quantity, Abs. at 595 nm / Biofilm reduction: 48 h contact time
From the text: (§1) Pure cultures of Meiothermus silvanus, a microbe species commonly found in paper machine biofilms (Ekman J, Journal of Industrial Microbiology & Biotechnology 34:203-211) and Pseudoxanthomonas taiwanensis, another species commonly found in paper machine environments (Desjardins, E & Beaulieu, C, Journal of Industrial Microbiology & Biotechnology 30:141-145) were used to study the efficacy of various chemicals to prevent biofilm formation.
(§2) Biofilm tests were done in either synthetic commercial R2-broth (Lab M Ltd, UK) or fibre-containing synthetic paper machine water, SPW (prepared according to Peltola, et al., J. Ind. Microbiol. Biotechnol. 2011, 38: 1719-1727) using 96-microwell plate wells with peg lids (Thermo Fischer Scientific Inc., USA). Plates were incubated at 45° C. with a rotary shaking (150 rpm) providing high flow in each well.
(§3) For experiments of preventing biofilm formation wells of 96-microwell plates with peg-lids were filled with R2-broth or SPW, inoculated with the pure bacterial cultures and treated with different amounts of chemical compounds to be tested. Peg-lid was put on. After 24 hours the wells were emptied and a fresh solution of pure culture containing SPW or R2 broth with different amounts of test chemicals were added to the wells and the original peg-lid was put back in place. After an additional 24 hours, i.e. 48 hours after starting the test, the wells were emptied, rinsed and the peg lid and wells were left to dry.
(§4) The amount of biofilm formed on the microwells and peg surfaces was quantified with a staining solution by adding 200 μl of 1% Crystal Violet (Merck Millipore KGaA, Germany) in methanol to each well and placing the peg-lid back on. After 3 minutes the wells were emptied and the wells and pegs were rinsed 3 times with tap water. The attached Crystal Violet was dissolved into ethanol and the absorbance at 595 nm was measured. The values shown in the following tables are average absorbance from 8 replicate wells and pegs.
(§5) All absorbance values in Examples 1-8 are given actual measured values. In calculation for biofilm reduction percentages it was taken in account that the SPW alone for 2 days without any bacterial inoculum gave a background value of 0.14.

[2] = system: Pseudoxanthomonas taiwanensis biofilms; test: as above; conditions: for Biofilm quantity, Abs. at 595 nm / Biofilm reduction / Biofilm quantity, Abs at 595 nm: 48 h contact time
From the text: as §1, §2, §3, §4, §5

[3] = system: Pseudoxanthomonas taiwanensis biofilms; test: Removal of existing (preformed) biofilm (96-microwell peg-lid plates, Crystal Violet staining); conditions: for Biofilm quantity, Abs. at 595 nm / Biofilm reduction: SPW, 45° C., 150 rpm, 24 h pre-growth and 24 h contact time; for Removal of already formed biofilms (in words): synthetic paper machine water, high temperature, fibres present, high flow
From the text: as §1, §2
(§6) For experiments of removing already existing (preformed) biofilm wells of 96-microwell plates with peg-lids were filled with SPW, inoculated with the pure bacterial cultures. Biofilm was grown for 24 hours without addition of any chemical compound to be tested. In some experiments after 24 hours the procedure was repeated by emptying the wells and by addition of a fresh solution of SPW inoculated with pure bacterial culture, again without any test chemical compound. The original peg-lid was put back in place and biofilm was allowed to grow for additional 24 h, i.e. in total 48 h.
(§7) After 24 or 48 hours after starting the test, the wells were emptied and a fresh solution of SPW, inoculated with the pure bacterial cultures and with different amounts of chemical compounds to be tested were added and the original peg-lid was placed back in place. After an additional 2 or 24 hours the wells were emptied, rinsed and the peg lid and wells were left to dry.
as §4, §5

[4] = system: Meiothermus silvanus biofilms; test: as above; conditions: for Biofilm quantity, Abs. at 595 nm / Biofilm reduction: SPW, 45° C., 150 rpm, 24 h pre-growth and 24 h contact time
From the text: as §1, §2, §6, §7, §4, §5

[5] = active compound, synthetic paper machine water, high temperature, fibres present, high flow
[6] = dosage 0.2 mg/l active ingredient, SPW, 45° C., 150 rpm
[7] = dosage 0.6 mg/l active ingredient, SPW, 45° C., 150 rpm
[8] = dosage 1 mg/l active ingredient, SPW, 45° C., 150 rpm
[9] = Table 5, dosage 0.06 mg/l active compound, SPW, 45° C., 150 rpm
[10] = Table 5, dosage 0.2 mg/l active compound, SPW, 45° C., 150 rpm
[11] = Table 9, dosage 0.2 mg/l active compound
[12] = Table 9, dosage 0.4 mg/l active compound
[13] = Table 7, dosage 0.2 mg/l active compound
[14] = Table 7, dosage 0.6 mg/l active compound
[15] = dosage 0.2 mg/l active compound
[16] = dosage 0.6 mg/l active compound
[17] = Table 6, dosage 0.06 mg/l active compound, SPW, 45° C., 150 rpm
[18] = Table 6, dosage 0.2 mg/l active compound, SPW, 45° C., 150 rpm

In the case of `N#CC(Br)(Br)C(N)=O` [DBNPA, 2,2-dibromo-3-nitrilopropionamide], the “Dosage required to reach acceptable or noticable biofilm reduction efficacy” value [1, 5] is reported as 1 mg/I, the “Biofilm quantity, Abs. at 595 nm” value [1, 6] is reported as 0.57 and the Biofilm reduction [1, 6] is reported as 16.9%. For the same compound, the “Biofilm quantity, Abs. at 595 nm” value [1, 7] was 0.35, the Biofilm reduction [1, 7] was 60.7% and the “Biofilm quantity, Abs. at 595 nm” value [1, 8] was 0.15. The Biofilm reduction [1, 8] was 98.8%, the “Dosage required to reach acceptable or noticable biofilm reduction efficacy” value [2, 5] was 1 mg/I and the “Biofilm quantity, Abs. at 595 nm” value [2, 6] was 1.46. The Biofilm reduction [2, 6] was 12.6%, the “Biofilm quantity, Abs. at 595 nm” value [2, 7] was 1.23 and the Biofilm reduction [2, 7] was 27.8%. The “Biofilm quantity, Abs. at 595 nm” value [2, 8] was 0.14 and the Biofilm reduction [2, 8] was 99.9%.
`N#C/C=C/S(=O)(=O)c1ccccc1` [Compound C, (2E)-3-phenylsulphonyl-2-propenenitrile] was tested, and the “Biofilm quantity, Abs. at 595 nm” value [1, 9] was 0.64, the Biofilm reduction [1, 9] was 29.7% and the “Biofilm quantity, Abs. at 595 nm” value [1, 10] was 0.15. The Biofilm reduction [1, 10] was 98.2%, the “Biofilm quantity, Abs. at 595 nm” value [3, 11] was 0.15 and the Biofilm reduction [3, 11] was 98.5%. For the same compound, the “Biofilm quantity, Abs. at 595 nm” value [3, 12] was 0.15, the Biofilm reduction [3, 12] was 99.0% and the “Removal of already formed biofilms (in words)” value (“Removal” for short) [3] was “remove already formed biofilms”.
In the case of `Cc1cc(C)c(S(=O)(=O)/C=C/C#N)c(C)c1` [Compound D, (2E)-3-[(2,4,6-trimethylphenyl)sulphonyl]-2-propenenitrile], the “Biofilm quantity, Abs. at 595 nm” value [3, 13] is reported as 2.07, the Biofilm reduction [3, 13] is reported as 8.4% and the “Biofilm quantity, Abs. at 595 nm” value [3, 14] is reported as 0.18. The Biofilm reduction [3, 14] was 97.9% and the “Removal” value [3] was “remove already formed biofilms”.
With Gramicidin the “Biofilm quantity, Abs. at 595 nm” value ([1]; dosage 0.2 mg/l, R2-broth) was 1.40, the Biofilm reduction ([1]; dosage 0.2 mg/l, R2-broth) was 13.7% and the “Biofilm quantity, Abs. at 595 nm” value ([1]; dosage 0.2 mg/l, SPW) was 1.33. For the same compound, the Biofilm reduction ([1]; dosage 0.2 mg/l, SPW) was 2.5%, the “Biofilm quantity, Abs. at 595 nm” value ([1]; dosage 1 mg/l, R2-broth) was 0.66 and the Biofilm reduction ([1]; dosage 1 mg/l, R2-broth) was 64.4%. For the same compound, the “Biofilm quantity, Abs. at 595 nm” value ([1]; dosage 1 mg/l, SPW) was 1.41, the Biofilm reduction ([1]; dosage 1 mg/l, SPW) was −4.1% and the “Biofilm quantity, Abs. at 595 nm” value ([1]; dosage 3 mg/l, R2-broth) was 0.17. For the same compound, the Biofilm reduction ([1]; dosage 3 mg/l, R2-broth) was 97.9%, the “Biofilm quantity, Abs. at 595 nm” value ([1]; dosage 3 mg/l, SPW) was 0.45 and the Biofilm reduction ([1]; dosage 3 mg/l, SPW) was 74.6%. For the same compound, the “Biofilm quantity, Abs. at 595 nm” value ([1]; dosage 10 mg/l, R2-broth) was 0.14, the Biofilm reduction ([1]; dosage 10 mg/l, R2-broth) was 100.0% and the “Biofilm quantity, Abs. at 595 nm” value ([1]; dosage 10 mg/l, SPW) was 0.19. For the same compound, the Biofilm reduction ([1]; dosage 10 mg/l, SPW) was 95.9%, the “Biofilm quantity, Abs. at 595 nm” value ([2]; dosage 3 mg/l, R2-broth) was 2.80 and the Biofilm reduction ([2]; dosage 3 mg/l, R2-broth) was −0.8%. For the same compound, the “Biofilm quantity, Abs at 595 nm” value ([2]; dosage 3 mg/l, SPW) was 2.25, the Biofilm reduction ([2]; dosage 3 mg/l, SPW) was 5.4% and the “Biofilm quantity, Abs. at 595 nm” value ([2]; dosage 10 mg/l, R2-broth) was 2.55. For the same compound, the Biofilm reduction ([2]; dosage 10 mg/l, R2-broth) was 8.7%, the “Biofilm quantity, Abs at 595 nm” value ([2]; dosage 10 mg/l, SPW) was 2.41 and the Biofilm reduction ([2]; dosage 10 mg/l, SPW) was −1.8%. The “Biofilm quantity, Abs. at 595 nm” value ([2]; dosage 25 mg/l, R2-broth) was 0.19, the Biofilm reduction ([2]; dosage 25 mg/l, R2-broth) was 98.1% and the “Biofilm quantity, Abs at 595 nm” value ([2]; dosage 25 mg/l, SPW) was 2.42. It also gave a Biofilm reduction ([2]; dosage 25 mg/l, SPW) of −2.2%.
With `COc1ccc(S(=O)(=O)/C=C/C#N)cc1` [Compound F, (2E)-3-[(4-methoxyphenyl)sulphonyl]-2-propenenitrile] the “Biofilm quantity, Abs. at 595 nm” value [4, 15] was 1.21, the Biofilm reduction [4, 15] was 6.4% and the “Biofilm quantity, Abs. at 595 nm” value [4, 16] was 0.86. For the same compound, the Biofilm reduction [4, 16] was 37.3% and the “Removal” value ([4]; synthetic paper machine water, high temperature, fibres present, high flow) was “remove already formed biofilms”.
With `N#C/C=C/S(=O)(=O)c1ccc(C(F)(F)F)cc1` [Compound E, (2E)-3-[(4-trifluormethylphenyl)sulphonyl]-2-propenenitrile] the “Biofilm quantity, Abs. at 595 nm” value [1, 17] was 1.43, the Biofilm reduction [1, 17] was 38.8% and the “Biofilm quantity, Abs. at 595 nm” value [1, 18] was 0.14. The Biofilm reduction [1, 18] was 99.6%.
